In patent publication US9730956B2 (priority 2014, dated 2017):

Experiments:
T. mentagrophytes = test: NORS antifungal effect on mycelial viability; format: cell-based, Trichophyton mentagrophytes; details: 30 minute exposure; 0.14% sodium nitrite (pH 6) or citric acid at pH 3.7 alone
T. rubrum = test: NORS antifungal effect on mycelial viability; format: cell-based, Trichophyton rubrum; details: 30 minute exposure; 0.14% sodium nitrite (pH 6) or citric acid at pH 3.7 alone

| SMILES | effect of single NORS component on mycelial viability (T. mentagrophytes) | effect of single NORS component on mycelial viability (T. rubrum) |
| --- | --- | --- |
| O=C(O)CC(O)(CC(=O)O)C(=O)O [citric acid] | Minimal to no effect | Minimal to no effect |
| O=NO [sodium nitrite] | Minimal to no effect | Minimal to no effect |
